The target in assay [1] is trypsin activity in feces. Briefly: Fecal Trypsin Activity (Specific Fecal Enzyme Method). In kind it is biochemical. To be noted: pooled infant fecal suspension, pH 8.2, 25° C.; read-out: IC50 Specific Fecal Enzyme Methods Trypsin. From the text: (§1) The following is a general description of a method for obtaining a sample of feces suitable for use in Fecal Protease Methods. However, one skilled in the art will be able to adapt the method to obtain appropriate samples of feces suitable for use in any of the Specific Fecal Protease Methods listed below (i.e., lipase, urease, and amylase) without undue experimentation.
(§2) Pooled infant feces (at least five different samples) are collected in a manner to keep them free of urine and contamination and mixed with water to obtain a weight by weight (w/w) mixture (e.g., 1:50 w/w). This mixture is then mixed thoroughly to obtain a homogeneous suspension by homogenization or sonication. […] (Also, to ensure complete linearity the final absorbance should never exceed 1.5 OD405 units). If the activity of the pooled infant feces is outside this range, it is not possible to accurately determine IC50 values for putative protease inhibitors. However, the range of enzyme activity may be adjusted by increasing or decreasing the dilution factor accordingly for each enzyme. If this is not possible, a different group of subjects should be used to obtain the sample pool.
To test the efficacy of protease inhibitors against the trypsin activity in feces, inhibitor and trypsin buffer (50 mM TRIS, 20 mM CaCl2, pH 8.2) are added in a cuvette to obtain a final volume of 0.8 mL. To this mixture, 0.1 mL of substrate (3 mM Cbz-arginine-p-nitroanilide) is added to the cuvette. The cuvette is mixed by inversion and incubated at 25° C. for 5 minutes. A volume of 0.1 mL of fecal suspension is added to the cuvette, mixed and the absorbance at 405 nm minus the absorbance at 490 nm are measured over 5 minutes at 25° C. (The absorbance at 490 nm is a correction factor for the background absorbance due to the particulate fecal material, i.e., “interference”). The rate of substrate cleavage in the presence of inhibitor (vi) is the slope of a plot relating the excess absorbance (i.e., the absorbance at 405 nm minus the absorbance at 490 nm) versus time. The same procedure is repeated without the putative inhibitor. The rate of substrate cleavage in the absence of inhibitor (v) is the slope of a plot relating the excess absorbance versus time. The rates, vi and v, and the inhibitor concentration [I] are used to calculate IC50 according to the equation expressed above.

Assay [2] deals with chymotrypsin activity in feces. Briefly: Fecal Chymotrypsin Activity (Specific Fecal Enzyme Method). It counts as biochemical. As to conditions: pooled infant fecal suspension, pH 7.6, 25° C.; read-out: IC50 Specific Fecal Enzyme Methods Chymotryp. From the text: The following is a general description of a method for obtaining a sample of feces suitable for use in Fecal Protease Methods. However, one skilled in the art will be able to adapt the method to obtain appropriate samples of feces suitable for use in any of the Specific Fecal Protease Methods listed below (i.e., lipase, urease, and amylase) without undue experimentation. […] Pooled infant feces (at least five different samples) are collected in a manner to keep them free of urine and contamination and mixed with water to obtain a weight by weight (w/w) mixture (e.g., 1:50 w/w). This mixture is then mixed thoroughly to obtain a homogeneous suspension by homogenization or sonication. […] (Also, to ensure complete linearity the final absorbance should never exceed 1.5 OD405 units). If the activity of the pooled infant feces is outside this range, it is not possible to accurately determine IC50 values for putative protease inhibitors. However, the range of enzyme activity may be adjusted by increasing or decreasing the dilution factor accordingly for each enzyme. If this is not possible, a different group of subjects should be used to obtain the sample pool. […] The cuvette is mixed by inversion and incubated at 25° C. for 5 minutes. […] The rate of substrate cleavage in the presence of inhibitor (vi) is the slope of a plot relating the excess absorbance (i.e., the absorbance at 405 nm minus the absorbance at 490 nm) versus time. The same procedure is repeated without the putative inhibitor. The rate of substrate cleavage in the absence of inhibitor (v) is the slope of a plot relating the excess absorbance versus time. The rates, vi and v, and the inhibitor concentration [I] are used to calculate IC50 according to the equation expressed above.

The target in the next assay is LAP activity in feces. Briefly: Fecal LAP Activity (Specific Fecal Enzyme Method). It counts as biochemical. To be noted: pooled infant fecal suspension, pH 7.2, 25° C.; read-out: IC50 Specific Fecal Enzyme Methods LAP.
From the text: as §1, §2
To test the efficacy of protease inhibitors against LAP activity in feces, inhibitor and LAP buffer (50 mM sodium phosphate, pH 7.2) are added in a cuvette to obtain a final volume of 0.95 mL. To this mixture, 0.03 mL of substrate (6 mM L-Leucine-p-nitroanilide) is added to the cuvette. The cuvette is mixed by inversion and incubated at 25° C. for 5 minutes. A volume of 0.02 mL of fecal suspension is added to the cuvette, mixed and the absorbance at 405 nm minus the absorbance at 490 nm measured over 5 minutes at 25° C. The rate of substrate cleavage in the presence of inhibitor (vi) is the slope of a plot relating the excess absorbance (i.e., the absorbance at 405 nm minus the absorbance at 490 nm) versus time. The same procedure is repeated without the putative inhibitor. The rate of substrate cleavage in the absence of inhibitor (v) is the slope of a plot relating the excess absorbance versus time. The rates, vi and v, and the inhibitor concentration [I] are used to calculate IC50 according to the equation expressed above.

In assay [3] the target is protease activity in feces. Briefly: General Fecal Enzymes Method (casein-resorufin cleavage). In kind it is biochemical, infant. To be noted: fecal suspension, casein-resorufin substrate, pH 7.8, 37° C. for 60 minutes.
From the text: as §2
The general method described above for obtaining a sample of feces suitable for use in Specific Fecal Enzyme Methods can be easily adapted by one skilled in the art to obtain appropriate samples of feces suitable for use in the General Fecal Enzymes Method listed below without undue experimentation.
To test the efficacy of protease inhibitors against the protease activity in feces, 50 μL of inhibitor and 50 μL of fecal suspension are added to a 1.5 mL microcentrifuge tube. The microcentrifuge tube is mixed by inversion and incubated at 25° C. for 45 minutes. Then, 50 μL of protease buffer (200 mM TRIS buffer containing 20 mM CaCl2, pH 7.8) is added to the microcentrifuge tube. The microcentrifuge tube is again mixed by inversion and incubated at 25° C. for 45 minutes. […] The microcentrifuge tube is again mixed by inversion and incubated at 37° C. for 60 minutes for the substrate cleavage reaction to take place. Then, 480 μL of trichloroacetic acid (5% w/v) is added to stop the reaction and precipitate any unreacted casein-resorufin. The microcentrifuge tube is mixed by inversion incubated at 37° C. for 15 minutes. […] Then, 400 μL of the supernatant is added to 600 μL of assay buffer (0.5 M TRIS, pH 8.8) in a cuvette. […] The same procedure is repeated without the putative inhibitor. […] Before the start of the reaction, A and Ai are nearly zero. […] The rates, vi and v, and the inhibitor concentration [I] are used to calculate IC50 according to the equation expressed above.

Where a name gives a salt, the structure may show the parent alone.

As to `O=C(O)CN(CCN(CC(=O)O)CC(=O)O)CC(=O)O` [EDTA, ethylenediamine tetraacetic acid], the values for the concentration for half-maximal inhibition (IC50) (in assay [1]; in assay [2]; on LAP activity in feces) were 100 µM, 100 µM and greater than 3000 µM, respectively.

In assay [3], `NCCc1ccc(S(=O)(=O)F)cc1` [4-(2-aminoethyl)-benzenesulfonylfluoride hydrochloride] displayed a 50% inhibitory concentration (IC50) of 217 µM.

The IC50 is the midpoint of a concentration-inhibition curve.

Source of the values: patent US6703536B2, “Disposable absorbent article having a skin care composition containing an enzyme inhibitor” (The Procter & Gamble Company, priority 1998, dated 2004).
